This note sets out measurements from patent publication US9284315B2, “Three-ring PI3K and/or mTOR inhibitor” (XUANZHU PHARMA CO., LTD., priority 2011, dated 2016).

Data set [1] relates to SD rats. Nature of the data set: Repeated-dose toxicity test in rats. The following applies: gavage once daily, 14 days, 20 rats. It counts as in vivo. As for the experimental part: The test substances were suspended in 0.5% methylcellulose solution to prepare suspensions with a concentration of 0.5 mg/mL, 1.5 mg/mL and 3 mg/mL.
Animals: SD rats, 6-8 weeks old, SPF grade, purchased from Beijing Vital River Laboratory Animal Technology Co., Ltd., licensed […] No: SCXK (Beijing) 2006-0009.
The test substances were administrated as a suspension via gavage, and administrating volume was 10 mL/kg. 0.5% methyl cellulose solution was used in the solvent group, and the administrating volume was 10 mL/kg, administered once daily for consecutive 14 days. Animals were observed daily appearance and general behavior changes.

Data set [2] is described as follows: In vivo pharmacokinetics in rats, gavage (PO). The following applies: male, SD, rat, plasma, 4 mg/kg.
Data set [3] can be described thus: In vivo pharmacokinetics in rats, intravenous bolus injection (IV). The following applies: 2 mg/kg; for AUC / half-life: male, SD, rat, plasma, iv; for Cl_obs / Vss_obs: rats, IV.
Data set [4] deals with mTOR (Homo sapiens (Human), UniProt P42345). Nature of the data set: mTOR inhibitory activity, Method 1 activity test. It counts as biochemical. The following applies: 4EBP1 50 nM, ATP 10.8 μM. How it is done: Determination of the Inhibitory Activity of mTOR
(§1) 1. Preparation of test reagents
(1) 1× kinase buffer (50 mM HEPES, pH 7.5, 10 mM MgCl2, 1 mM EGTA, 3 mM MnCl, 0.01% Tween-20, 2 mM DTT);
(2) 4× kinase solution (added mTOR kinase to 1× kinase buffer to provide 4× kinase solution with a final concentration of 2.5 nM);
(3) 2× substrate solution (added the substrates of 4EBP1 and ATP into 1× kinase buffer to provide 2× substrate solution with 4EBP1 final concentration of 50 nM and ATP final concentration of 10.8 μM);
(4) 4× test substance solutions (100× test substance solutions with different concentration gradients were prepared using 100% DMSO, and diluted 25-fold with 1× kinase buffer to give 4× test substance solutions with different concentration gradients)
(5) preparation of test solution (test solution containing EDTA and 4EBP1 phosphorylated antibody was prepared using activity test kit with assay buffer, the final concentration of EDTA was 8 mM, and the final concentration of 4EBP1 phosphorylated antibody was 2 nM)
(§2) 2. 2.5 μL of 4× test solution was added to a 384-well plate in parallel;
(§3) 3. added […] of 4× kinase solution and incubated for 10 min;
4. then added 5 μL of 2× solutions of 4EBP1 and ATP substrates and incubated for 1 h at room temperature;
5. finally, added 10 μL of test solution to quench the reaction, and read after 60 min;
(§4) 6. IC50 value was obtained via curve fitting. Inhibition rate (%)=(sample value−minimum)/(maximum−minimum)×100
Minimum refers to the readings of control wells without enzyme, maximum refers to the readings of DMSO control wells.
(§5) IC50 value was obtained via curve fitting using a soft of Graphpad 5.0.

Data set [5] deals with PI3Kα (Homo sapiens (Human), UniProt P42336). Nature of the data set: PI3K inhibitory activity, Method 1 activity test. It counts as biochemical. The following applies: PIP2 50 μM, ATP 25 μM. How it is done:
Determination of the inhibitory activity of PI3K
as §1
(1) 1× kinase buffer (50 mM HEPES, pH 7.5, 3 mM MgCl2, 1 mM EGTA, 100 mM NaCl, 0.03% CHAPS, 2 mM DTT);
(2) 4× kinase solution (added PI3K a kinase to 1× kinase buffer to provide 4× kinase solution with a final concentration of 1.65 nM);
(3) 2× substrate solution (added the substrates of PIP2 and ATP into 1× kinase buffer to provide 2× substrate solution with PIP2 final concentration of 50 μM and ATP final concentration of 25 μM);
(4) 4× test substance solutions (100× test substance solutions with different concentration gradients were prepared using 100% DMSO, and diluted 25-fold with 1× kinase buffer to give 4× test substance solutions with different concentration gradients);
(5) Invitrogen's activity test kit with the test solution was kept stand to room temperature.
as §2, §3
4. then added 5 μL of 2× solutions of PIP2 and ATP substrates and incubated for 1 h at room temperature;
5. finally, added 10 μL of test solution to quench the reaction, and read after 15 min;
as §4
Maximum refers to the readings of control wells without enzyme, minimum refers to the readings of DMSO control wells.
as §5

The test system of data set [6] is SKOV-3. Nature of the data set: Cell viability assay by XTT method, SKOV-3. The following applies: Homo sapiens, SK-OV-3. It counts as cell-based. How it is done:
(§6) 1. Preparation of Reagents and Compounds
(§7) 2) Preparation of XTT test working solution:
(§8) 100 mg of tetrazolium salt (XTT) powder was weighed and dissolved in dark in 300 mL of phenol red-free serum-free RPMI1640 medium heated to 50° C., filtered and subpackaged, used immediately or within a week. All process should be conducted in dark.
(§9) 3) Preparation of test compounds
(§10) preparation of stock solutions of the test substances: the powder of test substances was dissolved in DMSO in a concentration of 10 mM.
(§11) preparation of gradiently diluted stock solutions of test substances: First, 10 mM of the stock solutions of test substances were diluted serially in 4-fold with DMSO to 10 concentrations. 2 μL of DMSO-diluted solution for each compound was taken and added to 998 μL of culture medium containing 10% fetal bovine serum (FBS). The highest concentration of the test substances was 20 μM, the concentration of DMSO was 0.2%, and there were 10 concentration gradients in total.
(§12) 1) Preparation of cell suspension
(§13) The culture medium was discarded from the flask, and the cells were washed twice with PBS. Added trypsinase to digest the cell and then collected by centrifugation, resuspended with a medium containing 10% FBS, counted and adjusted to an appropriate concentration (cell viability must be greater than 90%). The cell concentration was […].
(§14) 2) The cell suspension was added to 96-well plates, each well 100 μL.
(§15) 3) Incubated in a cell incubator overnight at 37° C., 5% CO2.
(§16) Added compound diluted 2-fold to the cell culture plates, three repeated in total, 100 μL well.
(§17) 5. Cell Viability Assay by XTT Method
(§18) Discarded the culture medium, added XTT test working liquid in an amount of 150 μL well, and kept in a cell incubator at 37° C., 5% CO2 for 2 h, then placed into a microplate reader and read the absorbance at 450 nm.
(§19) 1) The percentage of inhibition was calculated using the following formula: Inhibition rate (%)=(reading(solvent)−reading(compound))/reading(solvent)−reading(positive control))×100
(§20) 2) The data was entered into GraphPad Prism 5.0 and plotted to obtain the curve and IC50.

Data set [7] concerns U87MG. Description: Cell viability assay by XTT method, U87MG. It counts as cell-based. The following applies: Homo sapiens, U-87 MG. As for the experimental part: as §6, §7, §8, §9, §10, §11, §12, §13, §14, §15, §16, §17, §18, §19, §20

“And” between values parts separate entries of the source, which are not always exact repeats. Identical values can stand only once.

PI3Kα, sequence (P42336 whole entry): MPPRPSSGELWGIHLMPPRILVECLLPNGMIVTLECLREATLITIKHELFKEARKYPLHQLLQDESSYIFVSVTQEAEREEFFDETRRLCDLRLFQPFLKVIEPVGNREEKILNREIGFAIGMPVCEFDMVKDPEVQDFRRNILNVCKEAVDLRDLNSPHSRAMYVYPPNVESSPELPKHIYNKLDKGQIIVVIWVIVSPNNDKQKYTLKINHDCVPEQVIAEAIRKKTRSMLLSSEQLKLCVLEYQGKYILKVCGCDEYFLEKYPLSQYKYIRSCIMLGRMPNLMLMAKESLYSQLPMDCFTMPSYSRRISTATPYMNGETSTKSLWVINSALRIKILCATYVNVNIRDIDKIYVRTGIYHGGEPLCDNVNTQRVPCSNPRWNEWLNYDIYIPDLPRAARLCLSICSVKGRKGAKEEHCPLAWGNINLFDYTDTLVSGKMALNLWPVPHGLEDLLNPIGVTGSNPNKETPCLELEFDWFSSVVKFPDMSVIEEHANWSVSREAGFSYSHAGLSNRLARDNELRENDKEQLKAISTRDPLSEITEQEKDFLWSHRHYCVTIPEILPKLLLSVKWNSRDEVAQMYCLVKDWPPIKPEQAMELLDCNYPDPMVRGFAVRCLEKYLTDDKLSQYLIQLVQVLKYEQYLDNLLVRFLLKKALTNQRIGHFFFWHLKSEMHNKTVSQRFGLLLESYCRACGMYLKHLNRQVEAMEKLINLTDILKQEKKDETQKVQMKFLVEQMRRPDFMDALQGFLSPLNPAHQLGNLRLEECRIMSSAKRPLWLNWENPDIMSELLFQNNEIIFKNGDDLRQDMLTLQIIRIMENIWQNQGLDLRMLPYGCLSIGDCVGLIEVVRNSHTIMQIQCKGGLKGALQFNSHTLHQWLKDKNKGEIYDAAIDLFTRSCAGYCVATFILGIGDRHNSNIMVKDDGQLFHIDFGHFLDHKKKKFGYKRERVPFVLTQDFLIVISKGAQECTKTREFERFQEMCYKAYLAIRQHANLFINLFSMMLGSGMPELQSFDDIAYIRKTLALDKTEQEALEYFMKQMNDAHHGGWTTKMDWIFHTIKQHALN
PI3Kα, sequence (P27986 whole entry partner): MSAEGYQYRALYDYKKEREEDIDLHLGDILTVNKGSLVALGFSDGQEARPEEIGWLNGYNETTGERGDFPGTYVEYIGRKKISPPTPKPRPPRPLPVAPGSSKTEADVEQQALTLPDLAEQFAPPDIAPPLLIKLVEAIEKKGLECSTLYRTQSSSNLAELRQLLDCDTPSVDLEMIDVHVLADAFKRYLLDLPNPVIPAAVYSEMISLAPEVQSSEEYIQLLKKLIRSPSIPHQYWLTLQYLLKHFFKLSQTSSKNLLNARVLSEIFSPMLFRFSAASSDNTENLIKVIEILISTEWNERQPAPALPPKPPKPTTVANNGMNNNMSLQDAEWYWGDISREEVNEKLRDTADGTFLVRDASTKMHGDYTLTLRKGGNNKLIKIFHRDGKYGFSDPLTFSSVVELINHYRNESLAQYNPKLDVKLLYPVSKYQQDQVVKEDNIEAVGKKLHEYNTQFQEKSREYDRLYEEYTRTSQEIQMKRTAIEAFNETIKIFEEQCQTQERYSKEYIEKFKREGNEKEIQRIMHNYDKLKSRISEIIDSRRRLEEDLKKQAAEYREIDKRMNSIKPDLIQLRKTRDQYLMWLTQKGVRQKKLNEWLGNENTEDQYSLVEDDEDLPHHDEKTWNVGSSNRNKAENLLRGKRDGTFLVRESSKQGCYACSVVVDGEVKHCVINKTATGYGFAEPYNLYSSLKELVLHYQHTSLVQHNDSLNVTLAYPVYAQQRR

For the molecule `Cn1c(=O)n(-c2ccc(C(C)(C)C#N)cc2)c2c3cc(-c4cnc5ccccc5c4)ccc3ncc21` [BEZ-235, reference compound], in data set [1] (high dose 30 mg/kg/day), the “hair loss (animals affected)” value is “three and 3/20”; the “lassitude (animals affected)” value is recorded as 0/20; the “loose stools (animals affected)” value was “fifteen and 15/20”. Also, in data set [1] (low dose 5 mg/kg/day), the “hair loss (animals affected)” value is on record as 0/20; the “lassitude (animals affected)” value was 0/20; the “loose stools (animals affected)” value is “six and 6/20”. Besides, in data set [1] (middle dose 15 mg/kg/day), the “hair loss (animals affected)” value is given as 0/20; the “lassitude (animals affected)” value is on record as 0/20; the “loose stools (animals affected)” value is “seven and 7/20”. In addition, in data set [2], the AUC was 2.18 µg·h/mL, the Cmax turned out to be 0.229 µg/mL, the Tmax was 2.83 h and the bioavailability amounted to 77.4%. Besides, the half-life in data set [2] was 4.08 h. In data set [3], this molecule showed an AUC of 1.44 µg·h/mL, a half-life of 3.19 h, a Cl_obs of 1.38 L/h/kg and a Vss_obs of 5.93 L/kg.
In the case of `COc1ccc(-c2ccc3ncc4c(c3c2)n(-c2ccc(N3CCNCC3)c(C(F)(F)F)c2)c(=O)n4C)cn1` [BGT-226, reference compound], in data set [4], the IC50 is 0.00199 µM. This molecule gave an IC50 in data set [5] of 0.0419 µM. In addition, in data set [2], the AUC came to 0.852 µg·h/mL, the highest level (Cmax) was 0.0611 µg/mL, the Tmax worked out at 6 h and the bioavailability amounted to 28%. In data set [3], this molecule had an AUC of 1.52 µg·h/mL, a half-life of 4.8 h, a Cl_obs of 1.3 L/h/kg and a Vss_obs of 8.72 L/kg.
With `COc1ccc(-c2ccc3ncc4c(c3n2)N(c2cccc(C(F)(F)F)c2)C(=O)N(C)C4)cn1` [Compound 2], the IC50 in data set [4] came to 0.0543 µM; in data set [5], 0.0884 µM.
On the same counts, the results for `CN1Cc2cnc3ccc(-c4ccc(C#N)nc4)nc3c2N(c2cccc(C(F)(F)F)c2)C1=O` [Compound 6] are 0.024 µM and 0.0338 µM.
In the case of `CC(=O)Nc1ccc(-c2ccc3ncc4c(c3n2)N(c2cccc(C(F)(F)F)c2)C(=O)N(C)C4)cn1` [Compound 7, N-(5-(3-methyl-2-oxo-1-(3-(trifluoromethyl)phenyl)-1,2,3,4-tetrahydropyrimido[5,4-c][1,5]naphthyridin-9-yl)pyridin-2-yl)acetamide], the IC50 in data set [4] is 0.0387 µM. Further, the IC50 in data set [5] came out at 0.0293 µM. Besides, the IC50 in data set [6] came out at 0.895 µM. Also, in data set [2], the AUC amounted to 0.0634 µg·h/mL, the peak level (Cmax) was 0.0349 µg/mL, the Tmax is 0.5 h and the bioavailability is 11.6%. In addition, the half-life in data set [2] is 1.7 h. Further, in data set [7], inhibition was half-maximal at 0.901 µM (IC50). Also, in data set [3], the area under the curve (AUC) turned out to be 0.275 µg·h/mL, the half-life is 0.47 h, the Cl_obs is reported as 7.42 L/h/kg and the Vss_obs is recorded as 4.45 L/kg.
As to `CSc1ccc(-c2ccc3ncc4c(c3n2)N(c2cccc(C(F)(F)F)c2)C(=O)N(C)C4)cn1` [Compound 8], the values for the IC50 in data set [4] and in data set [5] were 0.0765 µM and 0.26 µM, respectively.
The matching figures for `CN1Cc2cnc3ccc(-c4ccc(-n5cccn5)nc4)nc3c2N(c2cccc(C(F)(F)F)c2)C1=O` [Compound 9]: 0.0437 µM and 0.873 µM.
On the same counts, the results for `CN1CCN(c2ccc(-c3ccc4ncc5c(c4n3)N(c3cccc(C(F)(F)F)c3)C(=O)N(C)C5)cn2)CC1` [Compound 11] are 0.0312 µM and 0.496 µM.
The matching figures for `COc1ncc(-c2ccc3ncc4c(c3n2)N(c2cccc(C(F)(F)F)c2)C(=O)N(C)C4)cn1` [Compound 13]: 0.0303 µM and 0.021 µM.
`CN1Cc2cnc3ccc(-c4cnc(N)nc4)nc3c2N(c2cccc(C(F)(F)F)c2)C1=O` [Compound 14, 9-(2-aminopyrimidin-5-yl)-3-methyl-1-(3-(trifluoromethyl)phenyl)-3,4-dihydropyrimido[5,4-c][1,5]naphthyridin-1(2H)-one] returned a concentration for half-maximal inhibition (IC50) in data set [4] of 0.0085 µM. Besides, in data set [5], half-maximal inhibition (IC50) required 0.0033 µM. The IC50 in data set [6] stood at 0.89 µM. Also, in data set [2], the AUC is 0.402 µg·h/mL, the peak level (Cmax) was 0.147 µg/mL, the Tmax came to 0.5 h and the bioavailability amounted to 26.3%. Besides, the half-life in data set [2] is 1.39 h. Also, the IC50 in data set [7] was found to be 0.437 µM. Further, in data set [3], the AUC amounted to 0.735 µg·h/mL, the half-life is 2.08 h, the Cl_obs stood at 2.84 L/h/kg and the Vss_obs amounted to 2.97 L/kg.
Turning to `CN1Cc2cnc3ccc(-c4cnc5[nH]ccc5c4)nc3c2N(c2cccc(C(F)(F)F)c2)C1=O` [Compound 22, 3-methyl-9-(1H-pyrrolo[2,3-b]pyridin-5-yl)-1-(3-(trifluoromethyl)phenyl)-3,4-dihydropyrimido[5,4-c][1,5]naphthyridin-1(2H)-one], in data set [4], the IC50 turned out to be 0.0175 µM. Besides, the IC50 in data set [5] turned out to be 0.0102 µM. In data set [6], the midpoint of inhibition, the IC50, lay at 0.551 µM. This molecule showed a half-maximal inhibitory concentration (IC50) in data set [7] of 0.275 µM. Further, in data set [3], the AUC is 0.357 µg·h/mL, the half-life is 0.72 h, the Cl_obs is reported as 5.57 L/h/kg and the Vss_obs is recorded as 5.28 L/kg.
`COc1ccc(-c2ccc3ncc4c(c3n2)N(c2ccc(C(C)(C)C#N)cc2)C(=O)N(C)C4)cn1` [Compound 30, 2-(4-(9-(6-methoxypyridin-3-yl)-3-methyl-2-oxo-3,4-dihydropyrimido[5,4-c][1,5]naphthyridin-1(2H)-yl)phenyl)-2-methylpropionitrile]: the half-maximal inhibitory concentration (IC50) is 0.349 µM in data set [6] and 0.499 µM in data set [7].
As to `CN1Cc2cnc3ccc(-c4cnc5ccccc5c4)nc3c2N(c2ccc(C(C)(C)C#N)cc2)C1=O` [Compound 52], the IC50 in data set [4] came to 0.0665 µM; in data set [5], 0.154 µM; in data set [6], 0.467 µM; in data set [7] it was 0.436 µM.
Turning to `CN1Cc2cnc3ccc(-c4cnc5ccccc5c4)nc3c2N(c2ccc(N3CCNCC3)c(C(F)(F)F)c2)C1=O` [Compound 80], the results for the IC50 in data set [6] and in data set [7] were 0.542 µM and 0.279 µM, respectively.
